Measured values as given in US8703479B2, “Technology and method to study microbial growth and adhesion to host-related surfaces and the host-microbiota interaction” (Universiteit Gent, priority 2009, dated 2014).

Columns and labels:
[1] = polycarbonate membrane, 200 μm-thick mucus layer, room temperature
Protocol: The adhesion module was built with a functional double layer separating the completely anaerobic upper chamber (95% N2-5% CO2) from the aerobic lower chamber (95% O2-5% CO2). Oxygen concentration in the upper chamber was measured by means of a Hach Lange luminescent LDO oxygen probe. Experiments were conducted at room temperature with a 200 μm-thick mucus layer using a polycarbonate or a polyamide membrane.

[2] = system: suspension of the ascending colon compartment of a SHIME system; assay: Adhesion potential of a mixed microbial community under short-term prebiotic treatment in the adhesion module; settings: ascending colon SHIME suspension in luminal chamber, data not shown
From the text: A second objective of working with the in vitro adhesion module is to explore the adhesion potential of selected microbial cultures in the presence of a complex microbial community relevant for the terminal ileum and colon respectively and to evaluate the host cellular response towards this community. To this end, a suspension of the ascending colon compartment of a SHIME system was sampled and inoculated in the luminal chamber of the adhesion module in presence of inulin with a degree of polymerization between 2 and 20, and arabinoxylans (AX) with a degree of substitution of 0.7, and a strongly varying degree of polymerization (on average 200). The short-term effect of these functional foods was evaluated.

[3] = system: mucin-adhered microbiota of the SHIME; assay: Long-term prebiotic treatment in the SHIME with adhesion modules, plate counts, Adhesion Related Prebiotic Index; design: species or system human; settings: 2.5 g/L; for Adhesion Related Prebiotic Index (AR-PI): mucin-adhered microbial community, plate counts before and after the treatment
From the text: The aim of this study was to evaluate the effect of known prebiotic compounds (inulin and arabinoxylan—AX) on the microbiota associated with the gut wall in different areas of the GI tract and under long-term representative conditions. For this purpose, the adhesion module was used together with a well-validated gastrointestinal model—the Simulator of the Human Intestinal Microbial Ecosystem (SHIME). Clearly, the inherent adhesion potency, the specific growth rate, the state of mucus layer and interaction with endogenous microorganisms (adhered or in suspension) determined the microbial potency to colonize the intestinal epithelium.
The reactor setup is adapted from the system, representing the gastrointestinal tract of the adult human, as described by Molly et al. (1993). The SHIME consists of a succession of five reactors simulating the different parts of the human gastrointestinal tract. The first two reactors are of the fill-and-draw principle to simulate different steps in food uptake and digestion, with peristaltic pumps adding a defined amount of SHIME feed (140 mL 3×/day) and pancreatic and bile liquid (60 mL 3×/day), respectively to the stomach (V1) and duodenum (V2) compartment and emptying the respective reactors after specified intervals. The last three compartments are continuously stirred reactors with constant volume and pH control. Retention time and pH of the different vessels are chosen in order to resemble in vivo conditions in the different parts of the gastrointestinal tract. The overall residence time of the last three vessels, simulating the large intestine, is 76 h. Upon inoculation with fecal microbiota, these reactors simulate the ascending (V3), transverse (V4) and descending (V5) colon. Inoculum preparation, retention time, pH, temperature settings and reactor feed composition were previously described by Possemiers et al. (2004). […]
During the basal period, the SHIME reactor is operated under nominal conditions. Parameters such as short chain fatty acid (SCFA) production and ammonium production are determined 3 times/week and plate count analyses are performed once a week for selected bacterial groups (total (an) aerobes, total Clostridia, lactobacilli, bifidobacteria, total coliforms, staphylococci). The results of these analyses serve as the background values to be used to compare the measured parameters from the treatment period. […]
During the treatment period, the SHIME reactor is operated under nominal conditions, but with a modified diet containing a lower amount of starch in the medium compared to that of the basal period and the effect of a specific compound (inulin or arabinoxylan—2.5 g/L) is tested. SCFA and ammonium production are determined 3 times/week and plate count analysis is performed once a week. […]

[4] = Adhesion of a pure bacterial culture to the mucus-covered layer of the adhesion module; settings: contact time […]
Protocol: A first objective of working with the in vitro adhesion module is to explore the adhesion potential of pure cultures of gut microorganisms vs mixed microbial communities onto a mucus-covered layer. A culture of Lactobacillus rhamnosus GG was grown in relevant medium and inoculated in the luminal chamber of the adhesion module. The luminal chamber of a second system was inoculated with an in vitro adapted microbial community originated from the ascending colon of a Simulator of the Human Intestinal Microbial Ecosystem (SHIME) reactor. The adhesion module consisted of a luminal chamber containing the growth medium and the inoculated bacterial strain and a basal chamber from which oxygen could diffuse across a semi-permeable polycarbonate membrane, which was covered on its luminal side with a mucin layer, relevant for the specific region of the gastrointestinal tract. The contact time between the inoculated bacteria and the functional layer was established in 1.5 h. […] The obtained suspension was analyzed for microbial concentration using plate counts specific for different bacterial groups. […] Although not further analyzed at this moment, also the medium and optionally present cells of the basal chamber can be sampled and analyses can be conducted to estimate the simulated host's cellular response.

In the case of `O=O` [Oxygen], the “relative diffusion coefficient (DO2)” value [1] is reported as 9.8.10^−6 cm^2/sec.
With arabinoxylan [AX] the “effect on adhesion capacity of the investigated bacterial groups” value [2] was “decreased the adhesion capacity of all the investigated groups”, the “effect on the luminal and mucin-associated bacteria compared to that of inulin” value ([3]; long-term SHIME treatment) was “stronger and more permanent” and the “stimulation of the adhered lactobacilli” value ([3]; long-term SHIME treatment) was “particularly potent”. The “Adhesion Related Prebiotic Index (AR-PI)” value [3] was 70.
With Lactobacillus rhamnosus GG the “factor by which adhesion to the mucin-agar layer is higher than to mucin-free agar” value [4] was 6.19 and the percentage adhesion ([4]; mucin-agar layer, plate counts) was 15.7±3.2%.
For inulin, the “effect on adhesion capacity of the investigated bacterial groups” value [2] was “less or no influence” and the “Adhesion Related Prebiotic Index (AR-PI)” value [3] was 14.
